Assays:
[1] = system: ErbB2 autophosphorylation; conditions: tumor cell lines that overexpress these receptors; cited from earlier work
p-Erk1/2 = assay: Quantitative IHC of sequential tumor biopsies (Day 0 vs Day 21): p-Erk1/2
Description: (§1) Patients were monitored by physical examination, clinical chemistry and hematology blood tests, and formally re-staged after 8 weeks of therapy. […] Response was classified as Complete Response (CR), Partial Response (PR), Stable Disease (SD) or Progressive Disease (PD). Patients with CR, PR or SD were considered to have a positive clinical response. Patients with Progressive Disease (PD) were considered to have a negative clinical response.
(§2) Biopsies were fixed in 10% neutral buffered formalin (NBF) and paraffin-embedded sections prepared. Hematoxylin and eosin (H&E) staining was used to confirm for the presence of tumor.
(§3) The VMSI “I-View” detection kit was used for all three of the VMSI pre-diluted primary antibodies. Erk1/2 (1:1200), and TGFalpha (1:20) were immunostained using the “BenchMark” with I-VIEW detection chemistry. Phospho-Erk1/2 (1:100) and p-Akt (1:75) were immunostained using a labeled streptavidin peroxidase technique. […] Slides were placed onto the Autostainer (Dako, Carpinteria, Calif.) and used the labeled streptavidin-biotin peroxidase method (LSAB2 kit, Dako) as the detection chemistry. After staining, ErbB1, ErbB2, Erk1/2, p-Akt, p-Erk1/2, p-ErbB1, p-ErbB2, cyclin D1, IGF-IR, and TGFalpha were counterstained manually with 4% ethyl green (Sigma-Aldrich). […] Investigators preparing and analyzing tissue sections were blinded to both patient tumor type and response to therapy.
(§4) Expression of ErbB1, ErbB2, p-ErbB1, p-ErbB2, Erk1/2, p-Erk1/2, Akt, p-Akt, TGFalpha, IGF-IR and cyclin D1 was assessed by IHC with automated image analysis using established assays; OD values were assigned to each specimen.
(§5) For purposes of this Example, “inhibition” of a biomarker refers to a decrease in the level of the biomarker, assessed by comparing the level detected in a Day 0 biopsy from a patient to the level detected in a Day 21 biopsy from the same patient.

tumor cells = assay: TUNEL assay of sequential tumor biopsies (Day 0 vs Day 21), tumor cell apoptosis; conditions: for TUNEL % change: Day 21 vs Day 0; for TUNEL % change / TUNEL score (percent tumor cells staining positive), Day 21: 900 mg/day
Description: A commonly used method is TUNEL (Terminal deoxynucleotidyl Transferase Biotin-dUTP Nick End Labeling). One of the characteristics of apoptosis is the degradation of DNA after the activation of Ca/Mg dependent endonucleases. This DNA cleavage leads to strand breaks within the DNA. The TUNEL method identifies apoptotic cells in situ by using terminal deoxynucleotidyl transferase (TdT) to transfer biotin-dUTP to the free 3′-OH of cleaved DNA. The biotin-labeled cleavage sites are then visualized by reaction with fluorescein conjugated avidin (avidin-FITC).
as §1
TUNEL assay (Roche Diagnostics, Indianapolis, Ind.) was performed according to the manufacturer's instructions. Investigators preparing and analyzing tissue sections were blinded to both patient tumor type and response to therapy.
TUNEL scores represent the percent tumor cells staining positive.
For purposes of this Example, an “increase” in TUNEL score refers to an increased TUNEL score in the Day 21 biopsy, compared to the TUNEL score of the Day 0 biopsy from the same patient.
TUNEL staining is a quantitative measurement of DNA fragmentation characteristic of cellular apoptosis.

ErbB2 = assay: Quantitative IHC of sequential tumor biopsies (Day 0 vs Day 21): ErbB2; conditions: 900 mg/day; for ErbB2 % change: Day 21 vs Day 0
Description: as §1, §2, §3, §4, §5

cyclin D1 = assay: Quantitative IHC of sequential tumor biopsies (Day 0 vs Day 21): cyclin D1; conditions: for Cyclin D % change: Day 21 vs Day 0
Description: as §1, §2, §3, §4, §5

EGFR autophosphorylation = conditions: tumor cell lines that overexpress these receptors; cited from earlier work
p-ErbB2 = assay: Quantitative IHC of sequential tumor biopsies (Day 0 vs Day 21): p-ErbB2; conditions: for pErbB2 % change: Day 21 vs Day 0
Description: as §1, §2, §3, §4, §5

[2] = system: metastatic cancers overexpressing ErbB2 and/or expressing ErbB1; assay: Clinical response (RECIST) in open-label randomized dose-cohort trial; format: in vivo, human; conditions: for Partial Response (PR), number of patients / Stable Disease (SD), number of patients: all subjects
Description: Clinical response was assessed after 8 weeks of therapy.
The Institutional Review Boards at the Sarah Cannon Cancer Center, University of North Carolina-Chapel Hill/Lineberger Comprehensive Cancer Center, Duke University Medical Center, and Case Western Reserve Medical Center approved this study.
Patients with a positive response to treatment (CR, PR or SD) continued on therapy with re-staging every 8 weeks thereafter. Patients were withdrawn from study upon evidence of disease progression or intolerable side effects.

TGFalpha = assay: Quantitative IHC of sequential tumor biopsies (Day 0 vs Day 21): TGFalpha; conditions: 900 mg/day; for TGFa % change: Day 21 vs Day 0
Description: as §1, §2, §3, §4, §5

p-Akt = assay: Quantitative IHC of sequential tumor biopsies (Day 0 vs Day 21): p-Akt; conditions: for pAkt % change: Day 21 vs Day 0; for p-Akt inhibition (Day 21 vs Day 0): PR
Description: as §1, §2, §3, §4, §5

p-ErbB1 = assay: Quantitative IHC of sequential tumor biopsies (Day 0 vs Day 21): p-ErbB1; format: in vivo, human; conditions: for pErbB1 % change: Day 21 vs Day 0
ErbB1 = assay: Quantitative IHC of sequential tumor biopsies (Day 0 vs Day 21): ErbB1; conditions: 900 mg/day; for ErbB1 % change: Day 21 vs Day 0
Description: as §1, §2, §3, §4, §5

[3] = additional patient with non-inflammatory metastatic breast cancer, PR, 1200 mg/d, 21 days
[4] = patient with breast cancer, PD after 8 weeks (Table 5)
[5] = patient with non-inflammatory metastatic breast cancer, PR, 900 mg/day
[6] = second patient with IBC, PR (Table 4)
[7] = breast cancer patient, Progressive Disease
[8] = refractory Inflammatory Breast Cancer patient, Partial Response
[9] = breast cancer patient, 900 mg/day, Progressive Disease
[10] = refractory Inflammatory Breast Cancer patient, 900 mg/day, Partial Response
[11] = first patient with IBC, PR, 650 mg/d, 21 days
[12] = Breast, 30 enrolled, 500-1,600 mg orally once daily
[13] = Carcinoma of Unknown Primary, 5 enrolled

SMILES: CS(=O)(=O)CCNCc1ccc(-c2ccc3ncnc(Nc4ccc(OCc5cccc(F)c5)c(Cl)c4)c3c2)o1 [lapatinib]
- ErbB2 autophosphorylation [1]: inhibits
- p-Erk1/2 inhibition (Day 21 vs Day 0) (p-Erk1/2; [3]): complete inhibition
- p-Erk1/2 inhibition (Day 21 vs Day 0) (p-Erk1/2; [4]): 87%
- p-Erk1/2 inhibition (Day 21 vs Day 0) (p-Erk1/2; [5]): completely inhibited
- p-Erk1/2 inhibition (Day 21 vs Day 0) (p-Erk1/2; [6]): 68%
- TUNEL % change (tumor cells; [7]): 0%
- TUNEL % change (tumor cells; [8]): +2400%
- Percentage of tumor cells stained positive by TUNEL, Day 21 vs Day 0 (tumor cells; all four patients achieving Partial Response): markedly increased
- TUNEL score (percent tumor cells staining positive), Day 21 (tumor cells; [7]): 0
- TUNEL score, Day 21 vs Day 0 (tumor cells; patient with ErbB1-overexpressing head and neck carcinoma, tumor regression after 8 weeks not qualifying as PR): increased
- TUNEL score, Day 21 vs Day 0 (tumor cells; [4]): did not show an increase
- TUNEL score, Day 21 vs Day 0 (tumor cells; patients with PD at 8 weeks): did not increase
- TUNEL score (percent tumor cells staining positive), Day 21 (tumor cells; [8]): 72
- ErbB2 % change (ErbB2; [7]): −27%
- ErbB2 % change (ErbB2; [8]): −7%
- ErbB2 (IHC OD value), Day 21 (ErbB2; [7]): 32
- ErbB2 (IHC OD value), Day 21 (ErbB2; [8]): 65
- Cyclin D % change (cyclin D1; [9]): −76%
- Cyclin D % change (cyclin D1; [10]): −57%
- cyclin D inhibition (Day 21 vs Day 0) (cyclin D1; [3]): 90%
- Cyclin D (IHC OD value), Day 21 (cyclin D1; [9]): 10
- cyclin D1 inhibition (Day 21 vs Day 0) (cyclin D1; [11]): 49%
- cyclin D1 inhibition (Day 21 vs Day 0) (cyclin D1; [4]): 76%
- cyclin D1 inhibition (Day 21 vs Day 0) (cyclin D1; [5]): 90%
- Cyclin D (IHC OD value), Day 21 (cyclin D1; [10]): 12
- cyclin D1 inhibition (Day 21 vs Day 0) (cyclin D1; [6]): 57%
- EGFR autophosphorylation (EGFR autophosphorylation): inhibits
- pErbB2 % change (p-ErbB2; [9]): 0%
- pErbB2 % change (p-ErbB2; [10]): −83%
- p-ErbB2 inhibition (Day 21 vs Day 0) (p-ErbB2; [3]): not associated with any appreciable inhibition
- pErbB2 (IHC OD value), Day 21 (p-ErbB2; [9]): 3
- p-ErbB2 inhibition (Day 21 vs Day 0) (p-ErbB2; [11]): 72%
- p-ErbB2 change (Day 21 vs Day 0) (p-ErbB2; [5]): remained unchanged
- pErbB2 (IHC OD value), Day 21 (p-ErbB2; [10]): 5
- p-ErbB2 inhibition (Day 21 vs Day 0) (p-ErbB2; [6]): 83%
- Partial responses (PR), number of patients ([2]; 33 patients with sequential tumor biopsies, breast cancer): 4
- Disease stabilization (SD), number of patients ([2]; 33 patients with sequential tumor biopsies, various malignancies): 11
- Partial Response (PR), number of patients [2, 12]: 4
- Stable Disease (SD), number of patients [2, 12]: 10
- Partial Response (PR), number of patients [2, 13]: 0
- Stable Disease (SD), number of patients [2, 13]: 5
- Partial Response (PR), number of patients ([2]; Colon, 7 enrolled): 0
- Stable Disease (SD), number of patients ([2]; Colon, 7 enrolled): 2
- Partial Response (PR), number of patients ([2]; Head and Neck, 5 enrolled): 0
- Stable Disease (SD), number of patients ([2]; Head and Neck, 5 enrolled): 3
- Partial Response (PR), number of patients ([2]; Lung, 11 enrolled): 0
- Stable Disease (SD), number of patients ([2]; Lung, 11 enrolled): 6
- Partial Response (PR), number of patients ([2]; Other tumor types, 5 enrolled): 0
- Stable Disease (SD), number of patients ([2]; Other tumor types, 5 enrolled): 4
- Partial Response (PR), number of patients ([2]; Ovarian, 4 enrolled): 0
- Stable Disease (SD), number of patients ([2]; Ovarian, 4 enrolled): 2
- Partial Response (PR), number of patients ([2]; Total, 67 enrolled): 4
- Stable Disease (SD), number of patients ([2]; Total, 67 enrolled): 32
- Number of patients with Partial Response ([2]; dose 650 mg/day): 1
- Number of patients with Partial Response ([2]; dose 900 mg/day): 1
- Number of patients with Partial Response ([2]; dose 1200 mg/day): 2
- Response Duration, median ([2]; patients with Partial Response): 5+ months
- TGFa % change (TGFalpha; [7]): −53%
- TGFa % change (TGFalpha; [8]): −61%
- TGFa (IHC OD value), Day 21 (TGFalpha; [7]): 23
- TGFa (IHC OD value), Day 21 (TGFalpha; [8]): 21
- pAkt % change (p-Akt; [9]): −8%
- pAkt % change (p-Akt; [10]): −0%
- p-Akt inhibition (Day 21 vs Day 0) (p-Akt; additional patient with non-inflammatory metastatic breast cancer, 1200 mg/d, 21 days): 34%
- pAkt (IHC OD value), Day 21 (p-Akt; [9]): 33
- p-Akt inhibition (Day 21 vs Day 0) (p-Akt; first patient with IBC, 650 mg/d, 21 days): 90%
- p-Akt change (Day 21 vs Day 0) (p-Akt; [4]): essential unchanged
- p-Akt inhibition (Day 21 vs Day 0) (p-Akt; patient with non-inflammatory metastatic breast cancer, 900 mg/day): 44%
- pAkt (IHC OD value), Day 21 (p-Akt; [10]): 20
- p-Akt change (Day 21 vs Day 0) (p-Akt; [6]): essentially unchanged
- pErbB1 % change (p-ErbB1; [9]): −81%
- pErbB1 % change (p-ErbB1; [10]): −80%
- p-ErbB1 inhibition (Day 21 vs Day 0) (p-ErbB1; [3]): not associated with any appreciable inhibition
- pErbB1 (IHC OD value), Day 21 (p-ErbB1; [9]): 3
- p-ErbB1 inhibition (Day 21 vs Day 0) (p-ErbB1; [4]): 81%
- p-ErbB1 inhibition (Day 21 vs Day 0) (p-ErbB1; [5]): 31%
- pErbB1 (IHC OD value), Day 21 (p-ErbB1; [10]): 1
- p-ErbB1 inhibition (Day 21 vs Day 0) (p-ErbB1; [6]): 80%
- ErbB1 % change (ErbB1; [7]): +35%
- ErbB1 % change (ErbB1; [8]): −9%
- ErbB1 (IHC OD value), Day 21 (ErbB1; [7]): 19
- ErbB1 (IHC OD value), Day 21 (ErbB1; [8]): 32

Source: US7794960B2, “Predictive biomarkers in cancer therapy” (GlaxoSmithKline LLC, priority 2004, dated 2010)
